What was measured:
[1] = test system: NCI/ADR-RES; test: in vitro inhibition of MCF-7/ADR (human breast cancer) cell growth.; assay type: functional
[2] = test system: NCI-H522 (Homo sapiens); test: Concentration required to inhibit growth of human lung (H522) cell line
[3] = test system: SK-OV-3; test: Concentration required to inhibit growth of human ovarian (SK-OV3) cell line; assay type: functional
[4] = test system: DU-145; test: In vitro inhibition of DU145 (human prostate cancer) cell growth.; assay type: functional
[5] = test system: ACHN; test: Concentration required to inhibit growth of human renal (ACHN) cell line; assay type: functional
[6] = test system: Mus musculus; test: Anticancer activity after implantation of HT-29 human adeno carcinoma xenograft in mice at a dose of 300 mg/kg; 0/6; assay type: functional
[7] = test system: Mus musculus; test: (§1) Anticancer activity after implantation of HT-29 human adeno carcinoma xenograft in mice at a dose of 300 mg/kg; assay type: functional
[8] = test system: Mus musculus; test: as §1; assay type: functional; design: reference not given here
[9] = test system: OVCAR-8; test: Concentration required to inhibit growth of human ovarian (OVCAR8) cell line; assay type: functional
[10] = test system: SW-620; test: Concentration required to inhibit growth of human colon (SW620) cell line; assay type: functional
[11] = test system: PC-3; test: Concentration required to inhibit growth of human prostate (PC3) cell line; assay type: functional
[12] = test system: UACC-62; test: Concentration required to inhibit growth of human melanoma (UACC62) cell line; assay type: functional
[13] = test system: U-251; test: Concentration required to inhibit growth of human CNS (U251) cell line; assay type: functional
[14] = test system: MCF7; test: Concentration required to inhibit growth of human breast (MCF-7) cell line; assay type: functional
[15] = test system: HT-29; test: Concentration required to inhibit growth of human colon (HT-29) cell line; assay type: functional
[16] = test system: Mus musculus; test: Anticancer activity after implantation of HT-29 human adeno carcinoma xenograft in mice at a dose of 300 mg/kg; 1/6; assay type: functional

Structure (SMILES) | GI50 [1] | GI50 [2] | GI50 [3] | GI50 [4] | GI50 [5] | Mortality [6] | inhibition in vivo at 300 mg/kg [7] | Mean body weight [8] | GI50 [9] | GI50 [10] | GI50 [11] | GI50 [12] | GI50 [13] | GI50 [14] | GI50 [15] | Mortality [16]
COc1cc2ncnc(Nc3ccc(CS(=O)(=O)/C=C/c4ccc(Cl)cc4Cl)cc3)c2cc1OC | 24 µM | 6 µM | 2 µM | 1.4 µM | 15 µM | 0 | 68% | 12% | 2 µM | 2 µM | 5 µM | 21 µM | 13 µM | 11 µM | 6 µM | –
O=S(=O)(/C=C/c1ccc(Cl)cc1Cl)Cc1ccc(Nc2ncnc3ccc(Br)cc23)cc1 | > 100 µM | 8 µM | 1 µM | 2 µM | 0.1 µM | – | 22% | 4% | 3 µM | > 100 µM | 4 µM | 2 µM | 4 µM | 4 µM | 28 µM | 1
O=S(=O)(/C=C/c1ccc(Cl)cc1Cl)Cc1ccc(Nc2ncnc3ccccc23)cc1 | 5 µM | 12 µM | 2 µM | 3 µM | 0.1 µM | 0 | 22% | 7% | 4 µM | 14 µM | 19 µM | 2 µM | 4 µM | 4 µM | 24 µM | –
